Assay results as given in patent publication US5670154A, “Reducing tyrosinase activity” (priority 1994, dated 1997).

Test system: tyrosinase
Experiment: Tyrosinase inhibition, absorbance of Dopa-Chroma at 475 nm
Assay type: biochemical, mushroom
Settings: for Inhibition (%): Inhibitory agent 0.15mg/ml, tyrosine substrate, 30 minutes at 37° C.; for Relative strength of tyrosinase inhibition among the catechins: comparison of the catechins of Table 1
Experimental: The level of tyrosinase, inhibition was measured according to the following method.
50 μl of the enzyme (8300 U/ml) (Source:mushroom, SIGMA) was added to a mixture of 250 μl of tyrosine substrate solution (0.3 mg/ml), 250 μl of the inhibiting (polyphenol) solution (0.5 mg/ml), 250 μl of Macllvain buffer solution and left for 30 minutes at 37° C. After this time the absorbance of the red colored Dopa-Chroma formed was measured at 475 nm.
Inhibition(%)=[(A-B)-(C-D)]/(A-B)×100
Where A, B, C, D represent the absorbance of solutions A, B, C and D as defined below, measured at 475 nm respectively.
A is the tyrosine+enzyme solution
B is the tyrosine solution
C is the tyrosine+enzyme+polyphenol solution
D is the tyrosine+polyphenol solution

Row | SMILES | Inhibition (%) | Relative strength of tyrosinase inhibition among the catechins
1 | O=C(O[C@@H]1Cc2c(O)cc(O)cc2O[C@@H]1c1ccc(O)c(O)c1)c1cc(O)c(O)c(O)c1 [Epicatechin gallate, (-)Epicatechin gallate] | 95.1% | strongest inhibitors of tyrosinase
2 | Oc1cc(O)c2c(c1)O[C@H](c1ccc(O)c(O)c1)[C@H](O)C2 [Epicatechin, (-)Epicatechin] | 11.9% | –
3 | O=C(O[C@@H]1Cc2c(O)cc(O)cc2O[C@@H]1c1cc(O)c(O)c(O)c1)c1cc(O)c(O)c(O)c1 [Epigallocatechin gallate, (-)Epigallocatechin gallate] | 79.5% | strongest inhibitors of tyrosinase
4 | Oc1cc(O)c2c(c1)O[C@H](c1cc(O)c(O)c(O)c1)[C@H](O)C2 [Epigallocatechin, (-)Epigallocatechin] | 17.5% | –
